Laboratory results: patent US20210139484A1, “DIHYDROISOQUINOLINE-2(1H)-CARBOXAMIDE AND RELATED COMPOUNDS AND THEIR USE IN TREATING MEDICAL CONDITIONS” (GOSSAMER BIO SERVICES, INC., priority 2018, published 2021)

molecular target: T1, human HPK1 protein (Homo sapiens, UniProt Q92918); assay: Human HPK1 protein TR-FRET assay; type: biochemical; settings: 1 mM ATP, Table 20
T1 construct: recombinant human HPK1 protein (a.a. 1-346) was expressed in Sf9 insect cells; GST (N); purchased Signalchem M23-11G; host or cells: Sf9 insect cells (baculovirus)
T1 sequence (Q92918 1-346): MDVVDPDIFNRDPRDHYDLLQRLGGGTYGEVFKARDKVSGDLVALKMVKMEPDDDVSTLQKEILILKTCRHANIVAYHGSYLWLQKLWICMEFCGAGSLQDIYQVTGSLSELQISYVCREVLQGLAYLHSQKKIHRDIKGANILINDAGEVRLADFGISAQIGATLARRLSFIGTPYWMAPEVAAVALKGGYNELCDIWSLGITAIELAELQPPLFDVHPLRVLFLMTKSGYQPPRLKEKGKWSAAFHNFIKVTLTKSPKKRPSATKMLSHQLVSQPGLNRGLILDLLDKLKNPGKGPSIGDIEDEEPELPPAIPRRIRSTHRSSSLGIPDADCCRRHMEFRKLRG
How it was run: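 GST-tagged HPK1 (a.a. 1-346, Sf9-expressed) at 10 nM phosphorylated 100 nM ULight CREBtide with 1 mM ATP in Tris pH 7.5, MgCl2, NP-40, DTT, 1% DMSO, 60 minutes at room temperature. Phospho-Ser133 detected by Eu-antibody TR-FRET (665/615 nm ratio); IC50 from 4-parameter fit against DMSO control.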

IC50, < 500 nM:
CC[C@H]1CN(C(=O)Nc2ccc(CN3CCN(C)CC3)c(C(F)(F)F)c2)Cc2cc(Oc3c(F)cnc4[nH]c(C(=O)N(C)C)cc34)cnc21 [XIV-143]
CC[C@H]1CN(C(=O)Nc2ccc(CN3CCN(C)CC3)c(C(F)(F)F)c2)Cc2cc(Oc3ncnn4cc(C(=O)N(C)C)cc34)cnc21 [XIV-144]
CC[C@H]1CN(C(=O)Nc2ccc(CN3CCNCC3)c(C(F)(F)F)c2)Cc2cc(Oc3c(F)cnc4[nH]c(C(=O)N(C)C)cc34)cnc21 [XIV-145]
CC[C@H]1CN(C(=O)Nc2ccc(CN3CCNCC3)c(C(F)(F)F)c2)Cc2cc(Oc3ncnn4cc(C(=O)N(C)C)cc34)cnc21 [XIV-146]
CC[C@H]1CN(C(=O)Nc2ccc(CN3CCN(C)CC3)c(C(F)(F)F)c2)Cc2cc(Oc3ccnc4[nH]c(-c5cc[nH]n5)cc34)cnc21 [XIV-148]
CC[C@H]1CN(C(=O)Nc2ccc(CN3CCN(C)CC3)c(C(F)(F)F)c2)Cc2cc(Oc3ccnc4[nH]c(-c5cn[nH]c5)cc34)cnc21 [XIV-149]
CC[C@H]1CN(C(=O)Nc2ccc(CN3CCN(C)CC3)c(C(F)(F)F)c2)Cc2cc(Oc3ccnc4[nH]c(CS(C)(=O)=O)cc34)cnc21 [XIV-150]
CC[C@H]1CN(C(=O)Nc2ccc(CN3CCN(C)CC3)c(C(F)(F)F)c2)Cc2cc(Oc3ccnc4[nH]c(C5=CCOC5)cc34)cnc21 [XIV-151]
C=C(C)c1cc2c(Oc3cnc4c(c3)CN(C(=O)Nc3ccc(CN5CCN(C)CC5)c(C(F)(F)F)c3)C[C@@H]4CC)ccnc2[nH]1 [XIV-152]
CC[C@H]1CN(C(=O)Nc2ccc(CN3CCN(C)CC3)c(C(F)(F)F)c2)Cc2cc(Oc3ccnc4[nH]c(C(C)C)cc34)cnc21 [XIV-153]
CCC1CN(C(=O)Nc2ccc(CN3CCN(CC)CC3)c(C(F)(F)F)c2)Cc2cc(Oc3ccnc4[nH]c(C5=CCN(C(=O)C6CC6)CC5)cc34)cnc21 (centres unmarked) [XIV-155]
CC[C@@H]1CN(C(=O)Nc2ccc(CN3CCN(C)CC3)c(C(F)F)c2)Cc2cc(Oc3ncnc4[nH]c(C5CC5)cc34)ccc21 [XV-1]
CC[C@H]1CN(C(=O)Nc2ccc(CN3CCN(CCO)CC3)c(C(F)F)c2)Cc2cc(Oc3ncnc4[nH]c(C5CC5)cc34)ccc21 [XV-2]
CC[C@@H]1CN(C(=O)Nc2ccc(CN3CCNCC3)c(C(F)(F)F)c2)Cc2cc(Oc3ccnc4[nH]c(CO)cc34)ccc21 [XV-4]
CC[C@H]1CN(C(=O)Nc2ccc(CN3CCNCC3)c(C(F)(F)F)c2)Cc2cc(Oc3ccnc4[nH]c(CO)cc34)ccc21 [XV-5]
CC[C@@H]1CN(C(=O)Nc2ccc(CN3CCN(CCO)CC3)c(C(F)(F)F)c2)Cc2cc(Oc3ccnc4[nH]c(CO)cc34)ccc21 [XV-6]
CC[C@@H]1CN(C(=O)Nc2ccc(CN3CCN(CCO)CC3)c(C(F)F)c2)Cc2cc(Oc3ccnc4[nH]c(CO)cc34)ccc21 [XV-7]
CC[C@@H]1CN(C(=O)Nc2ccc(CN3CCN(C)CC3)c(C(F)F)c2)Cc2cc(Oc3ccnc4[nH]c(CO)cc34)ccc21 [XV-8]
CC[C@@H]1CN(C(=O)Nc2ccc(CN3CCNCC3)c(C(F)(F)F)c2)Cc2cc(Oc3ccnc4[nH]c(C5(O)COC5)cc34)ccc21 [XV-10]
CC[C@@H]1CN(C(=O)Nc2ccc(CN3CCN(C)CC3)c(C(F)(F)F)c2)Cc2cc(Oc3ccnc4[nH]c(C5(O)COC5)cc34)ccc21 [XV-12]
CC[C@@H]1CN(C(=O)Nc2ccc(CN3CCN(C)CC3)c(C(F)F)c2)Cc2cc(Oc3ccnc4[nH]c(C5(O)COC5)cc34)ccc21 [XV-14]
CC[C@@H]1CN(C(=O)Nc2ccc(CN3CCNCC3)c(C(F)(F)F)c2)Cc2cc(Oc3ccnc4[nH]c(C#N)cc34)ccc21 [XV-16]
CC[C@H]1CN(C(=O)Nc2ccc(CN3CCNCC3)c(C(F)(F)F)c2)Cc2cc(Oc3ccnc4[nH]c(C#N)cc34)ccc21 [XV-17]
CC[C@@H]1CN(C(=O)Nc2ccc(CN3CCN(C)CC3)c(C(F)F)c2)Cc2cc(Oc3ccnc4[nH]c(C#N)cc34)ccc21 [XV-18]
CC[C@@H]1CN(C(=O)Nc2ccc(CN3CCN(CCO)CC3)c(C(F)F)c2)Cc2cc(Oc3ccnc4[nH]c(C#N)cc34)ccc21 [XV-20]
CC[C@H]1CN(C(=O)Nc2ccc(CN3CCN(CCO)CC3)c(C(F)F)c2)Cc2cc(Oc3ccnc4[nH]c(C#N)cc34)ccc21 [XV-21]
CC[C@H]1CN(C(=O)Nc2ccc(CN3CCN(CCO)CC3)c(C(F)(F)F)c2)Cc2cc(Oc3ccnc4[nH]c(CO)cc34)ccc21 [XV-22]
CC[C@@H]1CN(C(=O)Nc2ccc(CN3CCN(CCO)CC3)c(C(F)F)c2)Cc2cc(Oc3ccnc4[nH]c(C5CC5)cc34)ccc21 [XV-24]
CC[C@@H]1CN(C(=O)Nc2ccc(CN3CCN(CCO)CC3)c(C(F)(F)F)c2)Cc2cc(Oc3ccnc4[nH]c(C5CC5)cc34)ccc21 [XV-26]
CC[C@H]1CN(C(=O)Nc2ccc(CN3CCN(C)CC3)c(C(F)(F)F)c2)Cc2cc(Oc3ccnc4[nH]c(C#N)cc34)ccc21 [XV-28]
CC[C@H]1CN(C(=O)Nc2ccc(CN3CCN(C)CC3)c(C(F)(F)F)c2)Cc2cc(Oc3ccnc4[nH]c(C(N)=O)cc34)ccc21 [XV-30]
C[C@H]1CN(C(=O)Nc2ccc(CN3CCN(C)CC3)c(C(F)(F)F)c2)Cc2cc(Oc3ccnc4[nH]c(C(N)=O)cc34)ccc21 [XV-31]
C[C@H]1CN(C(=O)Nc2ccc(CN3CCN(C)CC3)c(C(F)(F)F)c2)Cc2cc(Oc3ccnc4[nH]c(C5(O)COC5)cc34)ccc21 [XV-32]
C[C@H]1CN(C(=O)Nc2ccc(CN3CCN(C)CC3)c(C(F)F)c2)Cc2cc(Oc3ccnc4[nH]c(C5(O)COC5)cc34)ccc21 [XV-33]
C[C@H]1CN(C(=O)Nc2ccc(CN3CCN(C)CC3)c(C(F)(F)F)c2)Cc2cc(Oc3ccnc4[nH]c(C#N)cc34)ccc21 [XV-34]
C[C@H]1CN(C(=O)Nc2ccc(CN3CCN(CCO)CC3)c(C(F)(F)F)c2)Cc2cc(Oc3ccnc4[nH]c(C#N)cc34)ccc21 [XV-36]
C[C@H]1CN(C(=O)Nc2ccc(CN3CCN(C)CC3)c(C(F)(F)F)c2)Cc2cc(Oc3c(F)cnc4[nH]c(CO)cc34)ccc21 [XV-38]
C[C@H]1CN(C(=O)Nc2ccc(CN3CCN(C)CC3)c(C(F)(F)F)c2)Cc2cc(Oc3c(F)cnc4[nH]c(C(=O)N(C)C)cc34)ccc21 [XV-39]
CCC1CN(C(=O)Nc2ccc(CN3CCN(CC)CC3)c(C(F)(F)F)c2)Cc2cc(Oc3ccnc4[nH]c(C5CCN(C(=O)C6CC6)CC5)cc34)ccc21 (centres unmarked) [XV-40]
CC[C@H]1CN(C(=O)Nc2ccc(CN3CCN(CCO)CC3)c(C(F)F)c2)Cc2cc(Oc3ccnc4[nH]c(C(N)=O)cc34)ccc21 [XV-41]
CC[C@@H]1CN(C(=O)Nc2ccc(CN3CCN(CCO)CC3)c(C(F)F)c2)Cc2cc(Oc3ncnc4[nH]c(C5CC5)cc34)ccc21 [XV-42]
